The values that follow come from patent US8263754B2, “Amphiphiles for protein solubilization and stabilization” (Wisconsin Alumni Research Foundation, priority 2008, dated 2012).

The conditions of series [1]: cited from earlier work; for Buffer Range: pH range.
For series [2], the system named is LHI-RC superassembly in Rhodobacter capsulatus membranes. The conditions noted are these: for Level (S/P solubilization rank and detergent strength): detergent at 10x CMC, 30 minutes at 32° C.; for extraction of LHI-RC superassembly from R. capsulatus membranes: solubilized protein, optical spectroscopy. The source says: These complexes, normally embedded in the bacterial membrane, are highly pigmented and several outcomes from an assay are possible, including no degradation, partial degradation or complete degradation upon solubilization, or no solubilization. Thus, graded comparative evaluations could be obtained for a set of candidates such as the amphiphiles described herein.
In the engineered strain of R. capsulatus employed, the photosynthetic unit was comprised of a very labile LHI complex and a more resilient RC complex. An ideal amphiphile for this system will extract the intact LHI-RC superassembly from a bacterial membrane preparation and maintain the natural interactions among the components. Amphiphiles with a more disruptive effect will dissociate and denature LHI, leaving only intact RC, and even harsher amphiphiles will cause RC degradation. Each of these various outcomes can be assessed unambiguously via optical spectroscopy (FIG. 2 inset).
Measurements. The starting material for the screening protocols and stability measurements included specialized photosynthetic membranes from an engineered strain of Rhodobacter (R.) capsulatus, U43[pUHTM86Bgl]
To begin the solubilization and purification process, frozen aliquots of R. capsulatus membranes were thawed, homogenized, and equilibrated to 32° C. for 30 minutes. […] For subsequent experiments, the amphiphiles were evaluated at 10-fold CMC during the solubilization step.
The membrane samples were allowed to incubate with the amphiphile for 30 minutes at 32° C. The solubilized material was then separated from the membrane debris in an ultracentrifuge at 315,000×g at 4° C. for 30 minutes. […] After a UV-Vis-nearIR absorption spectrum was recorded, the resuspended pellet was discarded. […] The tubes were then incubated and inverted for 1 hour at 4° C.
Once binding was complete, samples were loaded onto resin-retaining spin columns (e.g., emptied His Spin Trap™ columns; GE Healthcare). The columns were then inserted into a 2 mL microcentrifuge tube to retain the filtered solution during centrifugation. […] Finally, protein was eluted into a fresh microcentrifuge tube with three 0.2 mL elution buffer aliquots (this buffer was identical to binding buffer with the addition of 1 M imidazole).
The R. capsulatus LHI-RC complexes extracted and purified by this procedure contain large numbers of cofactors that have absorptions at distinct wavelengths, and each component of the LHI-RC superassembly has a different inherent stability outside the lipid bilayer. The solubilization protocol outlined above therefore provides a multifaceted assessment of the efficacy of conventional detergents and novel amphiphiles. UV-Vis absorption spectroscopy data obtained at various stages of the protocol allow one to determine which protein components have degraded at these stages. […] The disruption potential was measured as the yield of superassembly extracted during solubilization (or, alternatively and more precisely, as the absence of superassembly in the pellet from the spin following solubilization).
The stabilizing propensity was determined from the spectra of the purified protein. An amphiphile was judged to be mild and stabilizing if it allowed the purification of fully intact LHI-RC superassembly (dominant absorption band at 875 nm). […] An amphiphile was judged to be of intermediate strength if it allowed for the purification of fully intact RC with damaged or missing LHI (dominant absorption at 800 nm with a shoulder at 875 nm; damaged LHI still bound to RC absorbs at 760 nm).
First, solubilization (illustrated in “STEP 1” of FIG. 12) denotes the ability of a surfactant to penetrate, integrate and disrupt a lipid bilayer.

Series [3] is described as follows: Critical micelle concentration (CMC) by dye solubilization (Orange OT or DPH). The format is physicochemical. As to conditions: for critical micelle concentration (CMC): aqueous solubilization of Orange OT; for CMC / CMC (%): determined by DPH (diphenylhexatriene) or Orange OT. The source says: Aqueous solubilization of Orange OT was used to determine critical micelle concentrations (CMC). […] Facile self-association of these amphiphiles under these conditions may be hindered by the hydrophilicity and/or steric bulk of the triglucoside and dimaltoside headgroups.
The Critical Micelle Concentrations (CMCs) of compounds of the invention can be determined by standard techniques known to those of skill in the art. For example, CMCs of the carbohydrate-based amphiphiles described herein can be determined by monitoring uptake of a dye (e.g., Orange OT or 1,6-diphenylhexatriene) with increasing detergent concentration, monitored by UV-visible or fluorescence spectroscopy.

Series [4] can be described thus: Solubility in water / aqueous buffer. As to conditions: for solubility in water: without cosolvents/additives. The format is physicochemical.
A further series deals with T1, LHI-RC superassembly.
T1 construct: Starting with protein complexes in their native lipid bilayer; made in house; host or cells: Rhodobacter capsulatus U43[pUHTM86Bgl], intracytoplasmic membranes (strain lacks LHII)
Put plainly: Stability over time of solubilized, purified LHI-RC superassembly (A875/A680 ratio). More on the design: species or system Rhodobacter capsulatus. As to conditions: room temperature, 875 nm/680 nm absorption ratio over two to three weeks. As for the experimental part:
FIG. 3. To monitor the ability of micelles of DDM, TPA-2, and MPA-2(C12) to stabilize membrane protein complexes, spectra of the protein purified by each detergent were recorded as a function of time. The initial spectrum (t=0) was acquired directly after elution of the protein from affinity chromatography. The integrity of the LHI-RC superassembly solubilized by these relatively mild detergents was monitored quantitatively from a scatter-corrected absorbance ratio (A875/A680). The ratio of a sample of completely folded and functional supperassembly is >14.5, and this ratio declines dramatically as the multi-subunit complex disassembles and denatures.
Stability was monitored by following the 875 nm/680 nm absorption ratio over a two to three weeks (absorption at 680 nm arises from oxidation of bacteriochlorophyll that has dissociated from LHI protein).
Similar criteria and protocols were used to judge the ability of amphiphiles to maintain solubilized and purified superassembly for extended periods. In this case, UV Vis-nearIR spectra were recorded at regular intervals. The degradation of the material could be monitored with the A875/A680 absorbance ratio, which decreased with time and sample integrity as the dominant 875 nm absorption of intact LHI disappeared and a 680 nm band appeared, indicating the presence of unbound, oxidized cofactors.

The structures appear in SMILES notation. “Also recorded” adds a separate entry of the source. Like-named read-outs stand apart in the source and are kept apart here.

For the compound `NC(CO)(CO)CO` [Tris, tris(hydroxymethyl)methylamine], the “Buffer Range” value in series [1] is on record as 7.5-9.0.

Turning to `OC[C@H]1O[C@@H](OCCC23CC4CC(CC(C4)C2)C3)[C@H](O)[C@@H](O)[C@@H]1O` [TPA 43], the “Level (S/P solubilization rank and detergent strength)” value in series [2] is on record as “insoluble”.

Turning to `O=C(O)CNC(CO)(CO)CO` [Tricine, N-tris(hydroxymethyl)methylglycine], the “Buffer Range” value in series [1] is reported as 7.4-8.8.

For the compound `O=S(=O)(O)CCN1CCN(CCS(=O)(=O)O)CC1` [PIPES, piperazine-N,N′-bis(2-ethanesulfonic acid)], in series [1], the “pKa at 25° C.” value was 6.76 and the “Buffer Range” value was 6.1-7.5.

For `CCCCCCCCCCCCC(=O)NC(CO[C@@H]1O[C@H](CO)[C@@H](O)[C@H](O)[C@H]1O)CO[C@@H]1O[C@H](CO)[C@@H](O)[C@H](O)[C@H]1O` [C12-MPA2], in series [3], the “critical micelle concentration (CMC)” value is given as 2.4 mM, the “CMC” value was 2.4 mM and the “CMC (%)” value is on record as 0.15%. In addition, in series [2] (after extraction from R. capsulatus membranes), the “yield of membrane protein complexes purified by affinity chromatography” value is recorded as “far greater yield”. Further, the “membrane protein complexes in the sample extracted” value in series [2] (intracytoplasmic membranes of R. capsulatus) was ~30%. In series [2], the “extraction of LHI-RC superassembly from R. capsulatus membranes” value (from here on “extraction of LHI-RC superassembly”) is recorded as “extracted a moderate amount of intact LHI-RC superassembly”.

Regarding `CCCCCCCCCCCCC(=O)NCCO[C@@H]1O[C@H](CO)[C@@H](O)[C@H](O)[C@H]1O` [MPA1], in series [4], the “solubility in aqueous buffer” value is recorded as “not soluble in aqueous buffer” and the solubility in water result is listed as “not soluble in water without other additives”. In addition, in series [2], the “Level (S/P solubilization rank and detergent strength)” value was “insoluble”.

For `CCCCC(CCCC)(CC(=O)NCCOC1OC(CO)C(O)C(O)C1O)c1ccccc1` (centres unmarked) [TPA1], in series [4], the solubility in water entry is “not water-soluble without other cosolvents”. For the same compound, in series [2], the “Level (S/P solubilization rank and detergent strength)” value is recorded as “insoluble”.

As to `CCCCC(CCCC)(CC(=O)NC(COC1OC(CO)C(O)C(O)C1O)(COC1OC(CO)C(O)C(O)C1O)COC1OC(CO)C(O)C(O)C1O)c1ccccc1` (centres unmarked) [TPA3], the “extraction of LHI-RC superassembly” value in series [2] was “no protein is extracted from the membrane”.

Take `CCCCC(CCCC)(CC(=O)NC(CO[C@H]1OC(CO)[C@H](O)C(O)C1O)CO[C@H]1OC(CO)[C@H](O)C(O)C1O)C1CCCCC1` (some centres unmarked) [TPA21]: in series [3], the “critical micelle concentration (CMC)” value is 1.8 mM, the “CMC” value is listed as 1.8 mM and the “CMC (%)” value was determined as 0.12%. Further, in the series on LHI-RC superassembly, the “stability of solubilized LHI-RC superassembly” value is given as “more stabilizing than those of TPA-2”. Besides, the “extraction of LHI-RC superassembly” value in series [2] (listed as TPA-2-S) is given as “as good as or better than TPA-2 at extracting membrane proteins; also recorded: at least as effective as TPA-2, if not superior; also recorded: equal to or superior to TPA-2 at extracting membrane proteins”.

On to `O=S(=O)(O)CCN1CCN(CCO)CC1` [HEPES, 4-2-hydroxyethyl-1-piperazineethanesulfonic acid], for which the “Buffer Range” value in series [1] is reported as 6.8-8.2.

Regarding `CCCCC(CCCC)(CC(=O)NCCO[C@@H]1O[C@H](CO)[C@@H](O[C@H]2O[C@H](CO)[C@@H](O)[C@H](O)[C@H]2O)[C@H](O)[C@H]1O)c1ccccc1` [TPA4], in series [3], the “critical micelle concentration (CMC)” value is on record as 4.0 mM, the “CMC” value was 4 mM and the “CMC (%)” value stood at 0.25%. The “extraction of LHI-RC superassembly” value in series [2] is “extracts a significant proportion of the membrane-embedded protein”.

On to `CCCCCCCCCCCCO[C@@H]1O[C@H](CO)[C@@H](O[C@H]2O[C@H](CO)[C@@H](O)[C@H](O)[C@H]2O)[C@H](O)[C@H]1O` [DDM, dodecyl-β-D-maltopyranoside, reference compound], for which the “stability of solubilized LHI-RC superassembly” value in the series with LHI-RC superassembly is reported as “begins to degrade immediately”. Further, in series [2], the “extraction of LHI-RC superassembly” value was “comparable to TPA-2 and TPA-2-S”.

As to `CCCCCCCCCCCCC(=O)NC(CO[C@@H]1O[C@H](CO)[C@@H](O[C@H]2O[C@H](CO)[C@@H](O)[C@H](O)[C@H]2O)[C@H](O)[C@H]1O)CO[C@@H]1O[C@H](CO)[C@@H](O[C@H]2O[C@H](CO)[C@@H](O)[C@H](O)[C@H]2O)[C@H](O)[C@H]1O` [MPA5], in series [3], the “critical micelle concentration (CMC)” value came out at 1.7 mM, the “CMC” value is on record as 1.7 mM and the “CMC (%)” value was 0.16%. For the same compound, the “extraction of LHI-RC superassembly” value in series [2] is reported as “did not extract any protein”.

For `CCCCCCCCCCCCCCCCC(=O)NC(CO[C@@H]1O[C@H](CO)[C@@H](O)[C@H](O)[C@H]1O)CO[C@@H]1O[C@H](CO)[C@@H](O)[C@H](O)[C@H]1O` [C16-MPA2], the “Level (S/P solubilization rank and detergent strength)” value in series [2] is “insoluble”.

Regarding `OCC1O[C@H](OCC23CC4CC(CC(C4)C2)C3)[C@H](O)C(O)[C@H]1O` (some centres unmarked) [TPA 42], the “Level (S/P solubilization rank and detergent strength)” value in series [2] is listed as “insoluble”.

On to `CCCCCCCCCCCCC(=O)NCCO[C@@H]1O[C@H](CO)[C@@H](O[C@H]2O[C@H](CO)[C@@H](O)[C@H](O)[C@H]2O)[C@H](O)[C@H]1O` [MPA4], for which, in series [4], the “solubility in aqueous buffer” value was “not soluble in aqueous buffer” and the solubility in water entry was “not soluble in water without other additives”. In series [2], the “Level (S/P solubilization rank and detergent strength)” value is listed as “insoluble”.

On to `CCCCC(CCCC)(CC(=O)NC(CO[C@@H]1O[C@H](CO)[C@@H](O[C@H]2O[C@H](CO)[C@@H](O)[C@H](O)[C@H]2O)[C@H](O)[C@H]1O)CO[C@@H]1O[C@H](CO)[C@@H](O[C@H]2O[C@H](CO)[C@@H](O)[C@H](O)[C@H]2O)[C@H](O)[C@H]1O)c1ccccc1` [TPA5], for which the “extraction of LHI-RC superassembly” value in series [2] was “solubilized a small proportion of relatively intact LHI-RC superassembly”.

With `O=S(=O)(O)CCCNC(CO)(CO)CO` [TAPS, 3-{[tris(hydroxymethyl)methyl]amino}propanesulfonic acid], in series [1], the “pKa at 25° C.” value is reported as 8.43 and the “Buffer Range” value is 7.7-9.1.

Take `CCCCCCCCCCCCC(=O)NC(CO[C@@H]1O[C@H](CO)[C@@H](O)[C@H](O)[C@H]1O)(CO[C@@H]1O[C@H](CO)[C@@H](O)[C@H](O)[C@H]1O)CO[C@@H]1O[C@H](CO)[C@@H](O)[C@H](O)[C@H]1O` [MPA3]: in series [3], the “critical micelle concentration (CMC)” value amounted to 4.4 mM, the “CMC” value is 4.4 mM and the “CMC (%)” value was determined as 0.35%. Further, the “extraction of LHI-RC superassembly” value in series [2] is reported as “did not extract any protein”.

As to `O=S(=O)(O)CCCN1CCOCC1` [MOPS, 3-(N-morpholino)propanesulfonic acid], the “Buffer Range” value in series [1] is 6.5-7.9.

In the case of `O=S(=O)(O)CCNC(CO)(CO)CO` [TES, 2-{[tris(hydroxymethyl)methyl]amino}ethanesulfonic acid], the “Buffer Range” value in series [1] is reported as 6.8-8.2.
